Earlier results in US8017623B2 (Trinity Laboratories, Inc., priority 2008, dated 2011).
Where a name gives a salt, the structure may show the parent alone. Read-outs that look alike come from different tables or passages of the source.

Legend:
thyroid = settings: rats, normal chloride intake
thyroid gland = settings: rats fed diets containing 4800 or 19200 ppm; from 3 days, constant over 12 weeks
[1] = rat, normal
females = settings: for mean plasma bromide concentration at the end of the treatment: females, three menstrual cycles
[2] = for peak plasma dextromethorphan concentration (mean) / peak plasma dextromethorphan concentrations (range): chronic oral dosing of 120 mg daily, divided doses

**Q.** With `COc1ccc2c(c1)[C@]13CCCC[C@@H]1[C@H](C2)N(C)CC3` [Dextromethorphan Hydrobromide] as the molecule, how does the solubility (at 20° C.) read?
**A.** 1.5%

**Q.** And the solubility (at 85° C.)?
**A.** 25%

**Q.** What about the “solubility” value (below 20° C.) of the same molecule?
**A.** sparingly soluble

**Q.** For `[Br-].[Na+]` [sodium bromide], which “NOAEL based on effects on the thyroid” value (thyroid) is on record?
**A.** 300 ppm sodium bromide

**Q.** And the thyroxine concentrations (thyroid gland)?
**A.** significantly decreased

**Q.** What about the effect on reproduction (rats; 1200 ppm) of the same molecule?
**A.** no effects on reproduction were observed

**Q.** And the effect on reproduction (rats; 4800 ppm)?
**A.** fertility and viability of the offspring were reduced

**Q.** What about the effect on reproduction (rats; 19200 ppm (highest dose level)) of the same molecule?
**A.** complete infertility

**Q.** What about the “medical history, physical examination, haematology, clinical chemistry and urine analyses” value (healthy volunteers; 4 or 9 mg Br/kg/day, except for incidental nausea) of the same molecule?
**A.** no changes were observed

**Q.** And the “serum thyroxine and triiodothyronine at the end of the study compared to pre-administration values” (healthy volunteers; females receiving 9 mg Br/kg/day, concentrations remained within normal limits)?
**A.** significant increase

**Q.** And the “mean plasma bromide concentration at the end of treatment” value (healthy volunteers; females, 4 mg Br/kg/day oral, three full cycles)?
**A.** 3.05 mmol/L

**Q.** And the “mean plasma bromide concentration at the end of treatment” value (healthy volunteers; females, 9 mg Br/kg/day oral, three full cycles)?
**A.** 4.93 mmol/L

**Q.** What about the “mean plasma bromide concentration at the end of treatment” value (healthy volunteers; males, 4 mg Br/kg/day oral, 12 weeks) of the same molecule?
**A.** 2.14 mmol/L

**Q.** What about the “mean plasma bromide concentration at the end of treatment” value (healthy volunteers; males, 9 mg Br/kg/day oral, 12 weeks) of the same molecule?
**A.** 4.30 mmol/L

**Q.** Which “NOAEL based on effects on the thyroid” value (thyroid) does the source give for `Br` [bromide] here?
**A.** 240 ppm bromide

**Q.** What about the “NOAEL based on effects on the thyroid” value (thyroid; equivalent dose) of the same molecule?
**A.** 12 mg bromide/kg bw/day

**Q.** What about the half-life [1] of the same molecule?
**A.** 3 days

**Q.** What about the “quantitative analysis of the electroencephalogram (EEG)” value (females; females receiving 9 mg Br/kg/day) of the same molecule?
**A.** only a marginal effect

**Q.** What about the “serum thyroxine, free thyroxine, triiodothyronine, thyrotropine and thyroxine-binding globulin” value (females; females, 0, 4 and 9 mg Br/kg/day) of the same molecule?
**A.** In none of the three groups were significant changes observed

**Q.** And the “mean plasma bromide concentration at the end of the treatment” value (females; 4 mg Br/kg/day)?
**A.** 3.22 mmol/L

**Q.** And the “mean plasma bromide concentration at the end of the treatment” value (females; 9 mg Br/kg/day)?
**A.** 7.99 mmol/L

**Q.** For `COc1ccc2c(c1)[C@]13CCCC[C@@H]1[C@H](C2)N(C)CC3` [Dextromethorphan, 3-methoxy-17-methyl-9a, 13a, 14 a-morphinan], which conjugated dextrorphan excreted ([2]; 24 hour period) is on record?
**A.** up to 30%

**Q.** What about the “dose excreted unchanged in the urine” value ([2]; 24 hour period) of the same molecule?
**A.** less than 2.5%

**Q.** What about the “peak plasma dextromethorphan concentration (mean)” value ([2]; extensive metabolizers) of the same molecule?
**A.** 2.4 ng/mL

**Q.** What about the “peak plasma dextromethorphan concentrations (range)” value ([2]; extensive metabolizers) of the same molecule?
**A.** 0.5 to 5.9 ng/mL

**Q.** And the “peak plasma dextromethorphan concentration (mean)” value ([2]; poor metabolizers)?
**A.** 207 ng/mL

**Q.** What about the “peak plasma dextromethorphan concentrations (range)” value ([2]; poor metabolizers) of the same molecule?
**A.** 182 to 231 ng/mL

**Q.** And the “peak concentration in serum” value ([2]; single 20 mg oral dose)?
**A.** 1.8 ng/mL

**Q.** And the “time of peak serum concentration” value ([2]; single 20 mg oral dose)?
**A.** 2.5 h
